Usually IC50 stands for the concentration at which inhibition is half-maximal.

The text below walks through data of paper PMC6347521 (Current protocols in toxicology, 2018).

Each structure is given as a SMILES string. Read-outs that look alike come from different tables or passages of the source.

Series [1] concerns Hep3B human hepatoma cell line. Nature of the series: cells. In kind it is cell-based. To be noted: read-out: IC50 TMRM.
The subject of series [2] is Hep3B human hepatoma cell line. Nature of the series: cells. In kind it is cell-based. To be noted: read-out: IC50 Hoechst.
Series [3] concerns Hep3B human hepatoma cell line. The series can be described thus: cells. In kind it is cell-based. Conditions: read-out: IC50 mBCl.
Series [4] concerns Hep3B human hepatoma cell line. The series can be described thus: cells. In kind it is cell-based. Conditions: read-out: IC50 Calcein AM.
The test system of another series is 2D. Conditions: read-out: IC50 2D (literature review), cited from earlier work.
In a further series the test system is rat. To be noted: ref not given; cited from earlier work.
The mark [5] stands for this setting: 2D cell culture, ref literature review.

For the molecule `CC(=O)Nc1ccc(O)cc1` [Acetaminophen], the IC50 was more than 2100 µM in series [1] (Homo sapiens, Hep3B, 48 h); more than 2100 µM in series [2] (Homo sapiens, Hep3B, 48 h); more than 2100 µM in series [3] (Homo sapiens, Hep3B, 48 h); more than 2100 µM in series [4] (Homo sapiens, Hep3B, 48 h); 29800 µM with 2D.
For `CC[C@H](C)C(=O)O[C@H]1C[C@@H](C)C=C2C=C[C@H](C)[C@H](CC[C@@H]3C[C@@H](O)CC(=O)O3)[C@H]21` [Lovastatin], the IC50 in series [1] (Homo sapiens, Hep3B, 48 h) was 152 ± 6.7 µM; in series [2] (Homo sapiens, Hep3B, 48 h), 188 ± 17.7 µM; in series [3] (Homo sapiens, Hep3B, 48 h), 195 ± 5 µM; in series [4] (Homo sapiens, Hep3B, 48 h) it was 150 µM; with 2D it was 20 ± 3.7 µM. The “LD50 mg/kg (rat oral)” value in the series with rat is listed as 5000 mg/kg.
Turning to `CC1=CC(=O)c2ccccc2C1=O` [Menadione], the IC50 was 11.5 ± 2.5 µM in series [1] (Homo sapiens, Hep3B, 48 h); 20 ± 1 µM in series [2] (Homo sapiens, Hep3B, 48 h); 15 ± 2.3 µM in series [3] (Homo sapiens, Hep3B, 48 h); 11 ± 3.8 µM in series [4] (Homo sapiens, Hep3B, 48 h); 13.5 ± 3.6 µM in the series with 2D (setting [5]).
In the case of `C=C(C)[C@H]1Cc2c(ccc3c2O[C@@H]2COc4cc(OC)c(OC)cc4[C@@H]2C3=O)O1` [Rotenone], the IC50 in series [1] (Homo sapiens, Hep3B, 48 h) is 0.6 ± 0.3 µM; in series [2] (Homo sapiens, Hep3B, 48 h), 3 µM; in series [3] (Homo sapiens, Hep3B, 48 h), 1.7 ± 0.7 µM; in series [4] (Homo sapiens, Hep3B, 48 h), 8 ± 6 µM; in the series with 2D (setting [5]), 1.7 ± 1.2 µM. In addition, the “LD50 mg/kg (rat oral)” value with rat is listed as 30 mg/kg.
With `O=C([O-])CC(O)(CC(=O)[O-])C(=O)[O-].[Na+].[Na+].[Na+]` [Sodium citrate], the IC50 (in series [1]; in series [2]; in series [3]; in series [4]; in the series on 2D) was more than 1400 µM each time.
As to `CC/C(=C(\c1ccccc1)c1ccc(OCCN(C)C)cc1)c1ccccc1` [Tamoxifen], the “LD50 mg/kg (rat oral)” value with rat is 4100 mg/kg.
